# Reference: patent US20250276995A1, “PRODUCTION METHOD FOR PEPTIDE COMPOUND” (CHUGAI SEIYAKU KABUSHIKI KAISHA, priority 2022, published 2025)
# Experiment: Verification of solubility of carbodiimide-derived urea in NMP and DMF
# Type: physicochemical
# Conditions: for Re-precipitation: 0.77 M, after 24 hours or more
# Text: The concentration of carbodiimide at the time of preactivation performed in the elongation steps of Reference Example 2-3 and Examples 2-4 and 2-5 was 0.77 mol/L. To confirm the risk of precipitation in case that all carbodiimide is converted to urea, the solubility in NMP and DMF was confirmed according to the following procedure, using the DIC-derived urea with which precipitates were confirmed in Reference Examples 2-3 and the DsBC-derived urea with which no precipitates were confirmed in Examples 2-4 and 2-5.
# Into 1.5 mL vials with a screw cap, DIC urea (compound SS05) and DsBC urea (compound SS06) synthesized in Example 1-3 were weighed and placed as described in Table 11, and NMP or DMF was added to be each concentration. The mixture was stirred at room temperature for 5 minutes or more, and then allowed to stand to confirm whether the urea was dissolved or not. […]
# [1] = solvent DMF, concentration 0.77 M (0.77 mol/L), room temperature
# [2] = solvent NMP, concentration 0.77 M (0.77 mol/L), room temperature
SMILES,Dissolved or not (in DMF at 0.17 M or more),Dissolved or not (in NMP at a concentration of 0.34 M or more),"Dissolved or not (solvent DMF, concentration 0.17 M, room temperature)","Dissolved or not (solvent DMF, concentration 0.34 M, room temperature)","Dissolved or not (solvent DMF, concentration 0.38 M, room temperature)","Dissolved or not (solvent DMF, concentration 0.51 M, room temperature)",Dissolved or not [1],"Dissolved or not (solvent NMP, concentration 0.17 M, room temperature, stirred 5 minutes or more then allowed to stand)","Dissolved or not (solvent NMP, concentration 0.34 M, room temperature)","Dissolved or not (solvent NMP, concentration 0.38 M, room temperature)","Dissolved or not (solvent NMP, concentration 0.51 M, room temperature)",Dissolved or not [2],Re-precipitation (DMF),Re-precipitation (NMP),"Dissolved or not (solvent DMF, concentration 0.77 M (0.77 mol/L), room temperature, listed as DsBC Urea (SS06))","Dissolved or not (solvent NMP, concentration 0.77 M (0.77 mol/L), room temperature, listed as DsBC Urea (SS06))"
"CC(C)NC(=O)NC(C)C [SS05, 1,3-Diisopropylurea]",not fully dissolved,not fully dissolved,not fully dissolved,not fully dissolved,not fully dissolved,not fully dissolved,not fully dissolved,dissolved,not fully dissolved,not fully dissolved,not fully dissolved,not fully dissolved,–,–,–,–
"CCC(C)NC(=O)NC(C)CC (stereo not shown) [SS06, 1,3-di-sec-butylurea]",–,–,–,–,–,–,completely dissolved,–,–,–,–,completely dissolved,no re-precipitation was confirmed,no re-precipitation was confirmed,dissolved,dissolved
"CCNC(=O)NC(C)(C)C [SS07, 1-(tert-butyl)-3-ethylurea]",–,–,–,–,–,–,completely dissolved,–,–,–,–,completely dissolved,no re-precipitation was confirmed,no re-precipitation was confirmed,–,–
